# Assay results from patent US20050037923A1, “Herbicidal mixture based on 7-pyrazolybenzoxazoles” (BASF Aktiengesellschaft, priority 2001, published 2005).
# Assays:
# [1] = tested on: BRAPL; experiment: Greenhouse test, post-emergence herbicidal action; assay type: in vivo, alexandergrass
# Text: (§1) For the post-emergence treatment, the test plants were first grown to a height of 3 to 20 cm, depending on the plant habit, and only then treated. Here, the herbicidal compositions were suspended or emulsified in water as distribution medium and sprayed using finely distributing nozzles.
# (§2) The respective components A and B and/or C were formulated as 10% by weight strength emulsion concentrate and introduced to the spray liquor with the amount of solvent system used for applying the active compound. In the examples, the solvent used was water.
# (§3) The test period extended over 21 days. During this time, the plants were tended, and their response to the treatments with active compound was evaluated.
# (§4) The evaluation for the damage caused by the chemical compositions was carried out using a scale from 0 to 100%, compared to the untreated control plants. Here, 0 means no damage and 100 means complete destruction of the plants.
# (§5) In the examples below, the value E which is to be expected if the activity of the individual active compounds is just additive was calculated using the method of S. R. Colby (1967) “Calculating synergistic and antagonistic responses of herbicide combinations”, Weeds 15, p. 22 ff. E=X+Y—(X·Y/100) where • X=effect in percent using active compound A at an application rate a; • Y=effect in percent using active compound B at an application rate b; • E=expected effect (in %) of A+B at application rates a+b.
# (§6) The plants used in the greenhouse experiments were of the following species: […]
# [2] = tested on: BIDPI; experiment: Greenhouse test, post-emergence herbicidal action; assay type: in vivo, hairy beggarticks
# Text: as §1, §2, §3, §4, §5, §6
# [3] = tested on: MATIN; experiment: Greenhouse test, post-emergence herbicidal action; assay type: in vivo, false chamomille
# Text: as §1, §2, §3, §4, §5, §6
# [4] = tested on: CHEAL; experiment: Greenhouse test, pre-emergence herbicidal action; assay type: in vivo, lambsquarters
# Text: (§7) For the pre-emergence treatment, the test plants were sown is pots 1-2 days later, i.e. prior to germination, the pots were sprayed with the finely distributed herbicidal compositions, which had been suspended in water.
# as §2, §3, §4, §5, §6
# [5] = tested on: THLAR; experiment: Greenhouse test, pre-emergence herbicidal action; assay type: in vivo, fanweed
# Text: as §7, §2, §3, §4, §5, §6
# [6] = tested on: ECHCG; experiment: Greenhouse test, pre-emergence herbicidal action; assay type: in vivo, barnyardgrass
# Text: as §7, §2, §3, §4, §5, §6
# [7] = tested on: POAAN; experiment: Greenhouse test, post-emergence herbicidal action; assay type: in vivo, annual bluegrass
# Text: as §1, §2, §3, §4, §5, §6
# [8] = tested on: POLPE; experiment: Greenhouse test, post-emergence herbicidal action; assay type: in vivo, ladysthumb
# Text: as §1, §2, §3, §4, §5, §6
# [9] = tested on: ABUTH; experiment: Greenhouse test, post-emergence herbicidal action; assay type: in vivo, velvet leaf; details: 21 days
# Text: as §1, §2, §3, §4, §5, §6
# [10] = tested on: COMBE; experiment: Greenhouse test, post-emergence herbicidal action; assay type: in vivo, tropical spiderwort; details: 21 days
# Text: as §1, §2, §3, §4, §5, §6
# [11] = tested on: AVEFA; experiment: Greenhouse test, post-emergence herbicidal action; assay type: in vivo, wild oat
# Text: as §1, §2, §3, §4, §5, §6
# [12] = tested on: SETFA; experiment: Greenhouse test, post-emergence herbicidal action; assay type: in vivo, giant foxtail; details: 21 days
# Text: as §1, §2, §3, §4, §5, §6
# [13] = tested on: ECHCG; experiment: Greenhouse test, post-emergence herbicidal action; assay type: in vivo, barnyardgrass
# Text: as §1, §2, §3, §4, §5, §6
# [14] = tested on: VERSS; experiment: Greenhouse test, post-emergence herbicidal action; assay type: in vivo, speadwell
# Text: as §1, §2, §3, §4, §5, §6
# [15] = tested on: ABUTH; experiment: Greenhouse test, pre-emergence herbicidal action; assay type: in vivo, velvet leaf
# Text: as §7, §2, §3, §4, §5, §6
# [16] = tested on: SETVI; experiment: Greenhouse test, post-emergence herbicidal action; assay type: in vivo, green foxtail
# Text: as §1, §2, §3, §4, §5, §6
# [17] = tested on: BIDPI; experiment: Greenhouse test, pre-emergence herbicidal action; assay type: in vivo, hairy beggarticks
# Text: as §7, §2, §3, §4, §5, §6
# [18] = tested on: crop plants; experiment: Safener action, pre-emergence, damage to crop plants; assay type: in vivo; details: 21 days
# Text: as §7, §2, §4
# As in the example above, test plants were grown, treated with the mixture according to the invention by the Pre-emergence method and, after a test period of 21 days, evaluated using a scale from 0 to 100% damage. The test plants used were crop plants.
# A safener action is present if the damage to the crop plant caused by using a mixture according to the invention which comprises a safener C) is less than the damage caused when active compound A or active compounds A and B are used without safener.
# [19] = tested on: GALAP; experiment: Greenhouse test, post-emergence herbicidal action; assay type: in vivo, catchweed bedstraw; details: 21 days
# Text: as §1, §2, §3, §4, §5, §6
# [20] = tested on: SORHA; experiment: Greenhouse test, pre-emergence herbicidal action; assay type: in vivo, johnsongrass
# Text: as §7, §2, §3, §4, §5, §6
# [21] = application rate 1.95 g/ha, 21 days
# [22] = application rate 3.91 g/ha, 21 days
# [23] = application rate 1.95 g/ha (Example 28)
# [24] = application rate 3.91 g/ha (Example 28)
# [25] = application rate 0.98 g/ha (Example 24)
# [26] = application rate 1.95 g/ha (Example 24)
# [27] = application rate 62.5 g/ha (Example 23)
smiles,measurement,setting,value
CCc1nc2c(Cl)cc(F)c(-c3nn(C)c(OC(F)F)c3Cl)c2o1 [I.9],"Herbicidal action against BRAPL, Found",[1]; application rate 3.91 g/ha (Example 17),65%
same,"Herbicidal action against BRAPL, Found",[1]; application rate 7.81 g/ha (Example 17),85%
same,"Herbicidal action against BIDPI, Found",[2]; [21],0%
same,"Herbicidal action against BIDPI, Found",[2]; [22],40%
same,"Herbicidal action against MATIN, Found",[3]; application rate 1.95 g/ha,20%
same,"Herbicidal action against MATIN, Found",[3]; application rate 3.91 g/ha,20%
same,"Herbicidal action against CHEAL, Found",[4]; application rate 7.81 g/ha,75%
same,"Herbicidal action against CHEAL, Found",[4]; application rate 15.63 g/ha,75%
same,"Herbicidal action against THLAR, Found",[5]; application rate 15.63 g/ha,80%
same,"Herbicidal action against THLAR, Found",[5]; application rate 31.25 g/ha,80%
same,"Herbicidal action against ECHCG, Found",[6]; application rate 7.81 g/ha,10%
same,"Herbicidal action against ECHCG, Found",[6]; application rate 15.63 g/ha,35%
same,"Herbicidal action against POAAN, Found",[7]; application rate 1.95 g/ha,10%
same,"Herbicidal action against POAAN, Found",[7]; application rate 3.91 g/ha,10%
same,"Herbicidal action against POLPE, Found","[8]; application rate 0.49 g/ha, 21 days",5%
same,"Herbicidal action against POLPE, Found","[8]; application rate 0.98 g/ha, 21 days",10%
same,"Herbicidal action against POLPE, Found",[8]; [21],50%
same,"Herbicidal action against ABUTH, Found",[9]; application rate 0.49 g/ha,0%
same,"Herbicidal action against ABUTH, Found",[9]; application rate 0.98 g/ha,70%
same,"Herbicidal action against COMBE, Found",[10]; application rate 0.98 g/ha,10%
same,"Herbicidal action against COMBE, Found",[10]; application rate 1.95 g/ha,10%
same,"Herbicidal action against AVEFA, Found",[11]; application rate 1.95 g/ha (Example 15),10%
same,"Herbicidal action against AVEFA, Found",[11]; [21],10%
same,"Herbicidal action against AVEFA, Found",[11]; application rate 3.91 g/ha (Example 15),20%
same,"Herbicidal action against SETFA, Found",[12]; application rate 1.95 g/ha,45%
CCc1nc2c(Cl)cc(Cl)c(-c3nn(C)c(OC(F)F)c3Br)c2o1 [I.12],"Herbicidal action against BRAPL, Found",[1]; [23],50%
same,"Herbicidal action against BRAPL, Found",[1]; application rate 3.91 g/ha (Example 18),60%
same,"Herbicidal action against BRAPL, Found",[1]; [24],50%
same,"Herbicidal action against BRAPL, Found",[1]; application rate 7.81 g/ha (Example 18),75%
same,"Herbicidal action against ECHCG, Found",[13]; application rate 0.49 g/ha,0%
same,"Herbicidal action against ECHCG, Found",[13]; application rate 0.98 g/ha,0%
same,"Herbicidal action against ECHCG, Found",[13]; [25],0%
same,"Herbicidal action against ECHCG, Found",[13]; [26],0%
same,"Herbicidal action against ECHCG, Found",[13]; [21],50%
same,"Herbicidal action against ECHCG, Found",[13]; [22],50%
same,"Herbicidal action against BIDPI, Found",[2]; application rate 1.95 g/ha,65%
same,"Herbicidal action against BIDPI, Found",[2]; application rate 3.91 g/ha,65%
same,"Herbicidal action against ECHCG, Found",[6]; application rate 31.25 g/ha,0%
same,"Herbicidal action against ECHCG, Found",[6]; [27],0%
same,"Herbicidal action against VERSS, Found",[14]; application rate 0.49 g/ha,0%
same,"Herbicidal action against VERSS, Found",[14]; application rate 0.98 g/ha,50%
same,"Herbicidal action against ABUTH, Found",[15]; application rate 62.5 g/ha,60%
same,"Herbicidal action against ABUTH, Found",[15]; application rate 125 g/ha,60%
same,"Herbicidal action against SETVI, Found",[16]; application rate 0.98 g/ha,40%
same,"Herbicidal action against SETVI, Found",[16]; application rate 1.95 g/ha,50%
same,"Herbicidal action against BIDPI, Found",[17]; application rate 62.5 g/ha,30%
same,"Herbicidal action against BIDPI, Found",[17]; application rate 125 g/ha,30%
same,"Damage to the crop plant corn (ZEAMX), cultivar Magister",[18]; application rate 62.5 g/ha,38%
same,"Damage to the crop plant corn (ZEAMX), cultivar P3751",[18]; application rate 62.5 g/ha,28%
same,"Damage to the crop plant corn (ZEAMX), cultivar Magister",[18]; application rate 125 g/ha,35%
same,"Damage to the crop plant corn (ZEAMX), cultivar P3751",[18]; application rate 125 g/ha,35%
same,"Herbicidal action against POLPE, Found",[8]; application rate 0.49 g/ha,15%
same,"Herbicidal action against POLPE, Found",[8]; application rate 0.98 g/ha,15%
same,"Herbicidal action against POLPE, Found",[8]; [25],15%
same,"Herbicidal action against POLPE, Found",[8]; [26],60%
same,"Herbicidal action against POLPE, Found",[8]; [21],60%
same,"Herbicidal action against POLPE, Found",[8]; [22],65%
same,"Herbicidal action against AVEFA, Found",[11]; application rate 1.95 g/ha,40%
same,"Herbicidal action against AVEFA, Found",[11]; application rate 1.95 g/ha (Example 16),20%
same,"Herbicidal action against AVEFA, Found",[11]; [23],20%
same,"Herbicidal action against AVEFA, Found",[11]; [21],20%
same,"Herbicidal action against AVEFA, Found",[11]; application rate 3.91 g/ha,40%
same,"Herbicidal action against AVEFA, Found",[11]; application rate 3.91 g/ha (Example 16),30%
same,"Herbicidal action against AVEFA, Found",[11]; [24],20%
same,"Herbicidal action against AVEFA, Found",[11]; [22],30%
same,"Herbicidal action against GALAP, Found",[19]; application rate 0.49 g/ha,15%
same,"Herbicidal action against GALAP, Found",[19]; application rate 0.98 g/ha,15%
same,"Herbicidal action against SETFA, Found",[12]; application rate 1.95 g/ha,50%
same,"Herbicidal action against SETFA, Found",[12]; application rate 3.91 g/ha,65%
same,"Herbicidal action against SORHA, Found",[20]; application rate 31.25 g/ha,30%
same,"Herbicidal action against SORHA, Found",[20]; application rate 62.5 g/ha,40%
COC[C@H](C)N(C(=O)CCl)c1c(C)csc1C [dimethenamide-P],"Herbicidal action against CHEAL, Found",[4]; application rate 62.5 g/ha,10%
same,"Herbicidal action against ECHCG, Found",[6]; application rate 62.5 g/ha (Example 22),85%
same,"Herbicidal action against ECHCG, Found",[6]; [27],85%
same,"Herbicidal action against SORHA, Found",[20]; application rate 62.5 g/ha,50%
